Test results published in patent US20260297060A1, “COMPOUNDS FOR THE DEGRADATION OF MUTANT BRAF” (C4 THERAPEUTICS, INC., priority 2023, published 2026).
Like-named read-outs stand apart in the source and are kept apart here.

What was measured:
[1] = Pharmacokinetics in female BALB/c nude mice bearing A375 xenografts, 1 day dosing (PK and PD study): plasma, tumor and brain concentrations, AUC; type: in vivo; details: mouse, po
Text: The concentrations of Dabrafenib, Compound 26 and Compound 141 in the treatment of female BALB/c nude mice bearing A375 xenografts are shown in Table 62-Table 72 and FIG. 52-FIG. 73.

BRAF V600E = assay: Pharmacodynamics of BRAF protein degradation in inoculated CNS tumors (Example 12); type: in vivo, human A375 CNS xenograft in mice; details: CNS tumor-bearing mice, after administration, versus encorafenib, FIG. 51
Protocol: FIG. 51 is a plot showing the pharmacodynamics of BRAF protein degradation in the inoculated CNS tumors. […] The experiment was conducted as described in Example 12.

[2] = plasma, 3 mg/kg, 3 mg/kg p.o. BID × 1 day, post 1st dose, read-out: Mean Concentration in Plasma ± SEM
[3] = plasma, 3 mg/kg, 3 mg/kg p.o. BID × 1 day, post 2nd dose, read-out: Mean Concentration in Plasma ± SEM
[4] = plasma, 6 mg/kg, 6 mg/kg p.o. QD × 1 day, read-out: Mean Concentration in Plasma ± SEM
[5] = plasma, 10 mg/kg, 10 mg/kg p.o. BID × 1 day, post 1st dose, read-out: Mean Concentration in Plasma ± SEM
[6] = plasma, 10 mg/kg, 10 mg/kg p.o. BID × 1 day, post 2nd dose, read-out: Mean Concentration in Plasma ± SEM
[7] = tumor, 1.5 mg/kg, 1.5 mg/kg p.o. BID × 1 day, post 2nd dose, read-out: Mean Concentration in Tumor ± SEM
[8] = tumor, 2 mg/kg, 2 mg/kg p.o. TID × 1 day, post 3rd dose, read-out: Mean Concentration in Tumor ± SEM
[9] = tumor, 3 mg/kg, 3 mg/kg p.o. BID × 1 day, post 2nd dose, read-out: Mean Concentration in Tumor ± SEM
[10] = tumor, 6 mg/kg, 6 mg/kg p.o. QD × 1 day, read-out: Mean Concentration in Tumor ± SEM
[11] = tumor, 10 mg/kg, 10 mg/kg p.o. BID × 1 day, post 2nd dose, read-out: Mean Concentration in Tumor ± SEM

SMILES: CCN(C)S(=O)(=O)Nc1ccc(F)c(Oc2ccc3ncn([C@H]4COC5(CCN(C6CC7(C6)CN(c6cc8c(cc6F)c(N6CCC(=O)NC6=O)nn8C)C7)CC5)C4)c(=O)c3c2)c1C#N [Compound 26, (3R)-3-[6-[2-cyano-3-[[ethyl(methyl)sulfamoyl]amino]-6-fluoro-phenoxy]-4-oxo-quinazolin-3-yl]-8-[2-[3-(2,4-dioxohexahydropyrimidin-1-yl)-5-fluoro-1-methyl-indazol-6-yl]-2-azaspiro[3.3]heptan-6-yl]-1-oxa-8-azaspiro[4.5]decane]
- concentration at 4 h [1, 2]: 3060 ± 172 ng/mL
- concentration at 8 h [1, 2]: 645 ± 24.7 ng/mL
- concentration at 12 h [1, 2]: 527 ± 130 ng/mL
- concentration at 0.25 h [1, 3]: 1380 ± 113 ng/mL
- concentration at 0.5 h [1, 3]: 2880 ± 325 ng/mL
- concentration at 1 h [1, 3]: 4920 ± 1060 ng/mL
- concentration at 2 h [1, 3]: 5290 ± 1110 ng/mL
- concentration at 4 h [1, 3]: 2590 ± 422 ng/mL
- concentration at 10 h [1, 3]: 1500 ± 194 ng/mL
- concentration at 24 h [1, 3]: 20.5 ± 4.61 ng/mL
- concentration at 36 h [1, 3]: 1.58 ng/mL
- concentration at 48 h [1, 3]: 0.968 ± 0.0751 ng/mL
- concentration at 0.25 h [1, 4]: 3250 ± 159 ng/mL
- concentration at 0.5 h [1, 4]: 7680 ± 353 ng/mL
- concentration at 1 h [1, 4]: 15200 ± 186 ng/mL
- concentration at 2 h [1, 4]: 11600 ± 1450 ng/mL
- concentration at 4 h [1, 4]: 6670 ± 1110 ng/mL
- concentration at 8 h [1, 4]: 5720 ± 1940 ng/mL
- concentration at 10 h [1, 4]: 3110 ± 682 ng/mL
- concentration at 24 h [1, 4]: 185 ± 109 ng/mL
- concentration at 36 h [1, 4]: 3.87 ± 0.735 ng/mL
- concentration at 48 h [1, 4]: 1.07 ng/mL
- concentration at 0.25 h [1, 5]: 7140 ± 1960 ng/mL
- concentration at 0.5 h [1, 5]: 17400 ± 1470 ng/mL
- concentration at 1 h [1, 5]: 25400 ± 10500 ng/mL
- concentration at 2 h [1, 5]: 18800 ± 3020 ng/mL
- concentration at 4 h [1, 5]: 7890 ± 2010 ng/mL
- concentration at 8 h [1, 5]: 2920 ± 468 ng/mL
- concentration at 12 h [1, 5]: 964 ± 248 ng/mL
- concentration at 0.25 h [1, 6]: 6220 ± 623 ng/mL
- concentration at 0.5 h [1, 6]: 12800 ± 1590 ng/mL
- concentration at 1 h [1, 6]: 27000 ± 3530 ng/mL
- concentration at 2 h [1, 6]: 20200 ± 1540 ng/mL
- concentration at 4 h [1, 6]: 17100 ± 3470 ng/mL
- concentration at 10 h [1, 6]: 4640 ± 318 ng/mL
- concentration at 24 h [1, 6]: 143 ± 29.1 ng/mL
- concentration at 36 h [1, 6]: 10.7 ± 2.46 ng/mL
- concentration at 48 h [1, 6]: 10.6 ± 9.23 ng/mL
- AUC at 24 h ([1]; plasma, 1.5 mg/kg p.o. BID × 1 day, read-out: Plasma AUC at 24 hours, Average): 27600 ng·h/mL
- AUC at 24 h ([1]; plasma, 2 mg/kg p.o. TID × 1 day, read-out: Plasma AUC at 24 hours, Average): 41800 ng·h/mL
- AUC at 24 h ([1]; plasma, 3 mg/kg p.o. BID × 1 day, read-out: Plasma AUC at 24 hours, Average): 60200 ng·h/mL
- AUC at 24 h ([1]; plasma, 6 mg/kg p.o. QD × 1 day, read-out: Plasma AUC at 24 hours, Average): 85100 ng·h/mL
- AUC at 24 h ([1]; plasma, 10 mg/kg p.o. BID × 1 day, read-out: Plasma AUC at 24 hours, Average): 224000 ng·h/mL
- concentration at 1 h [1, 7]: 164 ± 31.1 ng/g
- concentration at 4 h [1, 7]: 552 ± 24.7 ng/g
- concentration at 10 h [1, 7]: 246 ± 46.4 ng/g
- concentration at 24 h [1, 7]: 28.3 ± 21.8 ng/g
- concentration at 48 h [1, 7]: 5.63 ng/g
- concentration at 1 h [1, 8]: 617 ± 49.7 ng/g
- concentration at 4 h [1, 8]: 905 ± 48.2 ng/g
- concentration at 10 h [1, 8]: 667 ± 154 ng/g
- concentration at 24 h [1, 8]: 12 ± 2.59 ng/g
- concentration at 0.25 h [1, 9]: 197 ± 15.3 ng/g
- concentration at 0.5 h [1, 9]: 289 ± 31.1 ng/g
- concentration at 1 h [1, 9]: 581 ± 107 ng/g
- concentration at 2 h [1, 9]: 1230 ± 452 ng/g
- concentration at 4 h [1, 9]: 1060 ± 233 ng/g
- concentration at 10 h [1, 9]: 630 ± 39.9 ng/g
- concentration at 24 h [1, 9]: 24.7 ± 7.5 ng/g
- concentration at 48 h [1, 9]: 7.94 ng/g
- concentration at 1 h [1, 10]: 882 ± 157 ng/g
- concentration at 4 h [1, 10]: 2070 ± 259 ng/g
- concentration at 10 h [1, 10]: 1320 ± 333 ng/g
- concentration at 24 h [1, 10]: 89.1 ± 25.7 ng/g
- concentration at 48 h [1, 10]: 24.2 ng/g
- concentration at 1 h [1, 11]: 3500 ± 219 ng/g
- concentration at 4 h [1, 11]: 4160 ± 413 ng/g
- concentration at 10 h [1, 11]: 2060 ± 207 ng/g
- concentration at 24 h [1, 11]: 624 ± 438 ng/g
- concentration at 48 h [1, 11]: 81.6 ng/g
- AUC at 24 h ([1]; tumor, 1.5 mg/kg p.o. BID × 1 day, read-out: Tumor AUC at 24 hours, Average): 5750 ng·h/mL
- AUC at 24 h ([1]; tumor, 2 mg/kg p.o. TID × 1 day, read-out: Tumor AUC at 24 hours, Average): 11900 ng·h/mL
- AUC at 24 h ([1]; tumor, 3 mg/kg p.o. BID × 1 day, read-out: Tumor AUC at 24 hours, Average): 13300 ng·h/mL
- AUC at 24 h ([1]; tumor, 6 mg/kg p.o. QD × 1 day, read-out: Tumor AUC at 24 hours, Average): 25800 ng·h/mL
- AUC at 24 h ([1]; tumor, 10 mg/kg p.o. BID × 1 day, read-out: Tumor AUC at 24 hours, Average): 56700 ng·h/mL
- BRAF V600E levels in the brain tumor compared with encorafenib (BRAF V600E): much lower
